From ChEMBL document CHEMBL1909046, “DrugMatrix in vitro pharmacology data”

Experiments:
[1] = target: T1, B2 bradykinin receptor (Homo sapiens, UniProt P30411); format: cell membranes, Membrane; details: chem-1; further: in other assays of this panel Not Active means under 50% inhibition at 10 µM
T1 sequence (P30411 whole entry): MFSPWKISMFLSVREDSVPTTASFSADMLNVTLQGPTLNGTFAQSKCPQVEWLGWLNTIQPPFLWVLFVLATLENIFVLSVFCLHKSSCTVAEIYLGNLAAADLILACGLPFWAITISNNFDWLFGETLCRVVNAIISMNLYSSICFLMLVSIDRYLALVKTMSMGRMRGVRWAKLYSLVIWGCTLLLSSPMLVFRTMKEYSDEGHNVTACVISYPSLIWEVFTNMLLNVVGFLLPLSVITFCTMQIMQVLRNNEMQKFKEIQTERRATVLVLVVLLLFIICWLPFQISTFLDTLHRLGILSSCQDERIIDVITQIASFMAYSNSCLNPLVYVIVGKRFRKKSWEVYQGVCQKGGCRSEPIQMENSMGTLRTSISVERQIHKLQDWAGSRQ

[2] = target: T2, Substance-K receptor (Homo sapiens, UniProt P21452); format: cell membranes, CHO, Membrane; details: cho; further: in other assays of this panel Not Active means under 50% inhibition at 10 µM
T2 sequence (P21452 whole entry): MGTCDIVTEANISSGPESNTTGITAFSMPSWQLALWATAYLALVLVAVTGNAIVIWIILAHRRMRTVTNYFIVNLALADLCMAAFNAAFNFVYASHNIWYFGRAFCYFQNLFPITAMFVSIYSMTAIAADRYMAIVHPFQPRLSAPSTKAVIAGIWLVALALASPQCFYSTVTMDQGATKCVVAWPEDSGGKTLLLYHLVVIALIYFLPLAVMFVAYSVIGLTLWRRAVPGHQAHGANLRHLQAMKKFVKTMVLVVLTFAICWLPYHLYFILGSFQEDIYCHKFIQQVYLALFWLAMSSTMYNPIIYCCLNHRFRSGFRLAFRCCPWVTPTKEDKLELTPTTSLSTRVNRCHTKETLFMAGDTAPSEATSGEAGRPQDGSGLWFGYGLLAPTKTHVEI

[3] = target: T3, D(4) dopamine receptor (Homo sapiens, UniProt P21917); test: DRUGMATRIX: Dopamine D4.2 radioligand binding (ligand: [3H] Spiperone); format: cell membranes, CHO-K1, Membrane; details: cho-k1; Not Active = under 50% inhibition at 10 µM
T3 sequence (P21917 whole entry): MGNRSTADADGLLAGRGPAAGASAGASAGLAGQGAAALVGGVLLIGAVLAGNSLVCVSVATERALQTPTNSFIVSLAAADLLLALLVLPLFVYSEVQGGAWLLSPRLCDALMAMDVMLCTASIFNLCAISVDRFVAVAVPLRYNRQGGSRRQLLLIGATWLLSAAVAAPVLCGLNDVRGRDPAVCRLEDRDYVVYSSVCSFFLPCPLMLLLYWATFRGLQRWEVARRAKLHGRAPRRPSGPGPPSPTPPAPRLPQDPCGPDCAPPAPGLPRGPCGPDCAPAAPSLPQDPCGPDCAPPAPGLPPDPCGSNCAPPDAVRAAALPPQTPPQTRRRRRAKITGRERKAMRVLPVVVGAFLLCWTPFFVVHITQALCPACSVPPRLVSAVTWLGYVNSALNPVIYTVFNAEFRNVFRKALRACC

[4] = DRUGMATRIX: GABAA, Muscimol, Central radioligand binding (ligand: [3H] Muscimol); format: cell membranes, Rattus norvegicus, Wistar, Brain, Membrane; details: Not Active = under 50% inhibition at 10 µM
[5] = target: Histamine H2 receptor (Homo sapiens, UniProt P25021); format: cell membranes, CHO-K1, Membrane; details: cho-k1; further: in other assays of this panel Not Active means under 50% inhibition at 10 µM
Sequence of Histamine H2 receptor (P25021 whole entry): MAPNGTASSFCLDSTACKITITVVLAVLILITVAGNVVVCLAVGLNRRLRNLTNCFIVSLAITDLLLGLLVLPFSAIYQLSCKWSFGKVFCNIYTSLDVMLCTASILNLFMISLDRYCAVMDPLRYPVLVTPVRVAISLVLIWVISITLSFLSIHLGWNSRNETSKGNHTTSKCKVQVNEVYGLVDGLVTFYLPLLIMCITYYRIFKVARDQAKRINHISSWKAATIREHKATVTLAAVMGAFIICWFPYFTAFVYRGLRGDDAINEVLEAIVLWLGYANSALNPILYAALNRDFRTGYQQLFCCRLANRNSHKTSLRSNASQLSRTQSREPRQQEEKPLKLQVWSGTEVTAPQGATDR

[6] = target: T4, Neutrophil elastase (Homo sapiens, UniProt P08246); format: tissue-based;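 further: inhibition of neutrophil elastase enzyme activity, measured with a p-nitroanilide-linked peptide substrate; in other assays of this panel Not Active means under 50% inhibition at 10 µM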
T4 sequence (P08246 whole entry): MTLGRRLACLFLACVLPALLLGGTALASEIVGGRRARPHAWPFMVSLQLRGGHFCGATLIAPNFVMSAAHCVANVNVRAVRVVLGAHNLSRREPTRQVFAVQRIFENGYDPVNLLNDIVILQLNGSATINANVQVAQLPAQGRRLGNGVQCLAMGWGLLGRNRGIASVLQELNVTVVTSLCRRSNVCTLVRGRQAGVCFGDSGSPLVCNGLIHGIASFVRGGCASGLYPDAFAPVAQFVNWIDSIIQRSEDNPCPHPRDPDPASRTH

[7] = target: Voltage-gated inwardly rectifying potassium channel KCNH2 (Homo sapiens, UniProt Q12809); details: hek293; further: in other assays of this panel Not Active means under 50% inhibition at 10 µM
Sequence of Voltage-gated inwardly rectifying potassium channel KCNH2 (Q12809 whole entry): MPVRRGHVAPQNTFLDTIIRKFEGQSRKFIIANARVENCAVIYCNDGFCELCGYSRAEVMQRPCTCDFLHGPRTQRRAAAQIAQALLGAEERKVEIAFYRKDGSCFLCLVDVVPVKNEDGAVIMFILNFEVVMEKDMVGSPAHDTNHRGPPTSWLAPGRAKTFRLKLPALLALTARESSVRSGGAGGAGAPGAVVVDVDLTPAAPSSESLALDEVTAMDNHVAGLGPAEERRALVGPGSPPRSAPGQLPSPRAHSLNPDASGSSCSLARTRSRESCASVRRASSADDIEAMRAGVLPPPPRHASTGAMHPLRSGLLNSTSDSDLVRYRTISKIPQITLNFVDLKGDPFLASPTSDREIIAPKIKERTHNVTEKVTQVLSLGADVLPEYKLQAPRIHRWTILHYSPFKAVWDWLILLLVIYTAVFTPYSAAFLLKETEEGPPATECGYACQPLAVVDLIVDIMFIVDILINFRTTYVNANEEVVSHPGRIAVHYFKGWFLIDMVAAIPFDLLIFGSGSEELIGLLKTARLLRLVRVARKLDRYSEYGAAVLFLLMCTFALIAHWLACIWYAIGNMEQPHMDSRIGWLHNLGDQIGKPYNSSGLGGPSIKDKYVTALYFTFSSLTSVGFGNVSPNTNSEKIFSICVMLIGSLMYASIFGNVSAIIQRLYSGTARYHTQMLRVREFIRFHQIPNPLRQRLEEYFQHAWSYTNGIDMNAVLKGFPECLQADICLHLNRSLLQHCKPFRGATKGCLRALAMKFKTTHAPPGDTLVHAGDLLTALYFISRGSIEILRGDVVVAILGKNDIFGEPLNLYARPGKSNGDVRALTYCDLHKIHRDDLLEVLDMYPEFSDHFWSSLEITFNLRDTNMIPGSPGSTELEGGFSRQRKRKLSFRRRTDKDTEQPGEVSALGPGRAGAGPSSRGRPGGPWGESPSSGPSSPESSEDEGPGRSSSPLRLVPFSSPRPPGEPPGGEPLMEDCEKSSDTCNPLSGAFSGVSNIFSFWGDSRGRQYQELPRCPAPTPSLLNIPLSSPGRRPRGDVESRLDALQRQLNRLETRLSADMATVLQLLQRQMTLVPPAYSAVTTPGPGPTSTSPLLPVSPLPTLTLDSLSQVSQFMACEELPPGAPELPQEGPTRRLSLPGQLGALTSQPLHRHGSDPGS

CCOc1ccc(NC(C)=O)cc1 [PHENACETIN]
Not Active: IC50 [1] | IC50 [2] | IC50 [3] | IC50 [4] | Ki [4] | IC50 [5] | IC50 [6] | IC50 [7] | Ki [7]

Cc1cc(C(C#N)c2ccc(Cl)cc2)c(Cl)cc1NC(=O)c1cc(I)cc(I)c1O (centres undefined) [CLOSANTEL]
Not Active: IC50 [1] | IC50 [2] | IC50 [3] | IC50 [4] | Ki [4] | IC50 [5] | IC50 [6] | IC50 [7] | Ki [7]

C[C@]12CC[C@@H]3c4ccc(O)cc4CC[C@H]3[C@@H]1CCC2=O [ESTRONE]
Not Active: IC50 [1] | IC50 [2] | IC50 [3] | IC50 [4] | Ki [4] | IC50 [5] | IC50 [6] | IC50 [7] | Ki [7]

NC1=NC(=O)C(c2ccccc2)O1 (centres undefined) [PEMOLINE]
Not Active: IC50 [1] | IC50 [2] | IC50 [3] | IC50 [4] | Ki [4] | IC50 [5] | IC50 [6] | IC50 [7] | Ki [7]

CN(C)C(=O)Oc1cc(OC(=O)N(C)C)cc(C(O)CNC(C)(C)C)c1 (centres undefined) [BAMBUTEROL]
Not Active: IC50 [1] | IC50 [2] | IC50 [3] | IC50 [4] | Ki [4] | IC50 [5] | IC50 [6] | IC50 [7] | Ki [7]

C[C@H]1c2cccc(O)c2C(=O)C2=C(O)[C@]3(O)C(=O)C(C(N)=O)=C(O)[C@@H](N(C)C)[C@@H]3[C@@H](O)[C@@H]21.O [DOXYCYCLINE]
Not Active: IC50 [1] | IC50 [2] | IC50 [3] | IC50 [4] | Ki [4] | IC50 [5] | IC50 [6] | IC50 [7] | Ki [7]

CC1(C)S[C@@H]2[C@H](NC(=O)Cc3ccccc3)C(=O)N2[C@H]1C(=O)O [PENICILLIN G]
Not Active: IC50 [1] | IC50 [2] | IC50 [3] | IC50 [4] | Ki [4] | IC50 [5] | IC50 [6] | IC50 [7] | Ki [7]

C[C@H]1O[C@@H](O[C@H]2[C@@H](O)C[C@H](O[C@H]3[C@@H](O)C[C@H](O[C@H]4CC[C@@]5(C)[C@H](CC[C@@H]6[C@@H]5C[C@@H](O)[C@]5(C)[C@@H](C7=CC(=O)OC7)CC[C@]65O)C4)O[C@@H]3C)O[C@@H]2C)C[C@H](O)[C@@H]1O [DIGOXIN]
Not Active: IC50 [1] | IC50 [2] | IC50 [3] | IC50 [4] | Ki [4] | IC50 [5] | IC50 [6] | IC50 [7] | Ki [7]

c1ccc2c(c1)c1cccc3ccc4cccc2c4c31 [BENZO[E]PYRENE]
Not Active: IC50 [1] | IC50 [2] | IC50 [3] | IC50 [4] | Ki [4] | IC50 [5] | IC50 [6] | IC50 [7] | Ki [7]

Sc1ncnc2nc[nH]c12 [MERCAPTOPURINE ANHYDROUS]
Not Active: IC50 [1] | IC50 [2] | IC50 [3] | IC50 [4] | Ki [4] | IC50 [5] | IC50 [6] | IC50 [7] | Ki [7]

O=c1oc2ccccc2c(O)c1Cc1c(O)c2ccccc2oc1=O [DICUMAROL]
Not Active: IC50 [1] | IC50 [2] | IC50 [3] | IC50 [4] | Ki [4] | IC50 [5] | IC50 [6] | IC50 [7] | Ki [7]

Nc1nc(N)nc(-c2cc(Cl)ccc2Cl)n1.O=C(O)/C=C\C(=O)O [IRSOGLADINE MALEATE]
Not Active: IC50 [1] | IC50 [2] | IC50 [3] | IC50 [4] | Ki [4] | IC50 [5] | IC50 [6] | IC50 [7] | Ki [7]

CC1(C)O[C@@H]2C[C@H]3[C@@H]4CCC5=CC(=O)CC[C@]5(C)[C@@]4(F)[C@@H](O)C[C@]3(C)[C@]2(C(=O)CCl)O1 [HALCINONIDE]
Not Active: IC50 [1] | IC50 [2] | IC50 [3] | IC50 [4] | Ki [4] | IC50 [5] | IC50 [6] | IC50 [7] | Ki [7]

O=c1[nH]c(=O)n([C@H]2C[C@H](O)[C@@H](CO)O2)cc1I [IDOXURIDINE]
Not Active: IC50 [1] | IC50 [2] | IC50 [3] | IC50 [4] | Ki [4] | IC50 [5] | IC50 [6] | IC50 [7] | Ki [7]

CC(C)C(=O)Nc1ccc([N+](=O)[O-])c(C(F)(F)F)c1 [FLUTAMIDE]
Not Active: IC50 [1] | IC50 [2] | IC50 [3] | IC50 [4] | Ki [4] | IC50 [5] | IC50 [6] | IC50 [7] | Ki [7]

CCC1(c2ccc(N)cc2)CCC(=O)NC1=O (centres undefined) [AMINOGLUTETHIMIDE]
Not Active: IC50 [1] | IC50 [2] | IC50 [3] | IC50 [4] | Ki [4] | IC50 [5] | IC50 [6] | IC50 [7] | Ki [7]
